Data from publication PMC8922281, “Synthesis and In Vitro Biological Evaluation of Quinolinyl Pyrimidines Targeting Type II NADH-Dehydrogenase (NDH-2)” (ACS Infectious Diseases, 2022).
pIC50: −log10 of the molar value. In brackets after ≈: the same amount, converted by molar mass. Several values for one entry are separate records, joined by “and”; a condition that tells them apart may be missing. Equal entries are not always repeated. Where two headings read alike, the source gives them in different places.

How the values were obtained:
[1] = Cytotoxicity on the MRC-5 cell line (resazurin); assay type: cell-based; details: human, MRC-5SV2 cells, MRC-5SV2, 3 days
Procedure: MRC-5SV2 cells were cultured in Earl’s MEM + 5% FCSi. Assays were performed in 96-well microtiter plates, each well containing about 10^4 cells/well. After 3 days of incubation with or without compounds, cell viability was assessed fluorimetrically after the addition of resazurin (λex 550 nm, λem 590 nm). The results were expressed as % reduction in cell growth/viability compared to untreated control wells and CC50 was determined. Testing/retesting strategy was as described above for HepG2 cells.

MtNDH-2 = MtNDH-2 (Mycobacterium tuberculosis, UniProt P95160); experiment: biochemical; design: species or system M. tuberculosis; details: MtNDH-2 IC50
[2] = test system: S. aureus (ATCC 29213, wild-type); experiment: MIC on ESKAPE pathogens, S. aureus; assay type: cell-based; details: Staphylococcus aureus, ATCC29213
[3] = test system: P. aeruginosa (PAO1, wild-type); experiment: MIC on ESKAPE pathogens, P. aeruginosa wild-type; assay type: cell-based; details: Pseudomonas aeruginosa, PAO1, P. aeruginosa PAO1, wild-type; read-out: MIC Pa WT
MsNDH-2 = MsNDH-2 (Mycolicibacterium smegmatis, UniProt A0QYD6); experiment: Inhibition of MsNDH-2 (NADH oxidation with menadione, absorbance at 340 nm); assay type: biochemical, M. smegmatis
[4] = test system: E. coli (ATCC 25922, wild-type); experiment: MIC on ESKAPE pathogens, E. coli wild-type; assay type: cell-based; details: Escherichia coli
[5] = test system: P. aeruginosa (PAO750 efflux-defective mutant, isogenic to PAO1); experiment: microbe, parasite or virus in culture; assay type: cell-based; details: Pseudomonas aeruginosa, PAO1, read-out: MIC Pa efflux
[6] = test system: E. coli (ΔtolC efflux-defective mutant, isogenic to ATCC 25922); experiment: microbe, parasite or virus in culture; assay type: cell-based; details: Escherichia coli, ATCC25922, read-out: MIC Ec ΔtolC
[7] = test system: K. pneumonia (ATCC 13833, wild-type); experiment: MIC on ESKAPE pathogens, K. pneumoniae
[8] = test system: M. tuberculosis strain H37Rv (ATCC 25618); experiment: MIC on M. tuberculosis by resazurin reduction microplate assay (REMA); assay type: cell-based; details: Mycobacterium tuberculosis, M. tuberculosis H37Rv, read-out: MIC Mtb
[9] = test system: E. coli (D22, lpxC mutant, drug-hypersensitive); experiment: microbe, parasite or virus in culture; assay type: cell-based; details: Escherichia coli, read-out: MIC Ec D22
[10] = test system: A. baumannii (ATCC 19606, wild-type); experiment: MIC on ESKAPE pathogens, A. baumannii; assay type: cell-based; details: Acinetobacter baumannii
[11] = 95% confidence interval in parentheses, 50 nM enzyme, 50 μM menadione, >100: no significant inhibition at 100 μM
[12] = same IC50 given in μg/mL to assist comparisons with MICs
[13] = ATCC25922, E. coli ATCC 25922, wild-type, read-out: MIC Ec WT
[14] = ATCC19606, A. baumannii ATCC 19606, wild-type, read-out: MIC Ab WT

MtNDH-2, sequence (P95160 2-463, added parts left off): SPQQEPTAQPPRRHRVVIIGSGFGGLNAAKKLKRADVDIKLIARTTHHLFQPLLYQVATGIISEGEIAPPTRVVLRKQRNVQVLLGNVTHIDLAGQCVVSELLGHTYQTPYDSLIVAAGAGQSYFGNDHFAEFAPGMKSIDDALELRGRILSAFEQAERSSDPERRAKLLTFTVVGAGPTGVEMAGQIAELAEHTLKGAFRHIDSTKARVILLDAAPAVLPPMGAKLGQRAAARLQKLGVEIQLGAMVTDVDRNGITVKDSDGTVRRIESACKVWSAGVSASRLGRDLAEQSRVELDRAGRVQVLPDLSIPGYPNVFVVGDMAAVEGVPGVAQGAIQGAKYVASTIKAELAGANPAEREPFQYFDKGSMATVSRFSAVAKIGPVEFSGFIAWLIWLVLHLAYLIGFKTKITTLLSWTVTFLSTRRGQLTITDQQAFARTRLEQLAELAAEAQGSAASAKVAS
MsNDH-2, sequence (A0QYD6 1-457): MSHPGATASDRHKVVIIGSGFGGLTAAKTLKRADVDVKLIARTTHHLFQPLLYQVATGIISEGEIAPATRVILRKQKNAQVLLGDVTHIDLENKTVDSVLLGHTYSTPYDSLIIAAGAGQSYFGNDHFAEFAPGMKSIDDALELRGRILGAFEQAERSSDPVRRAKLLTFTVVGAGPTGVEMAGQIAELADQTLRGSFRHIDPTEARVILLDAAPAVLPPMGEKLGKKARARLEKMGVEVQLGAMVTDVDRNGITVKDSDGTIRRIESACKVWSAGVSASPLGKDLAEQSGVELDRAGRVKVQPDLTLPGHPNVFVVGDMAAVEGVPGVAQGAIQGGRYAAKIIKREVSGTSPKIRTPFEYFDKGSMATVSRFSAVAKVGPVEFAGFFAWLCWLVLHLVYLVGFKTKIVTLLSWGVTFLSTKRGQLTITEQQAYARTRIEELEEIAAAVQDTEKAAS

| Structure (SMILES) | IC50 at 3 days ([1]; resazurin) | IC50 at 3 days ([1]; value in parentheses) | pIC50 (MtNDH-2) | MIC [2] | MIC [3] | pIC50 (MsNDH-2; [11]) | pIC50 (MsNDH-2; [12]) | MIC [4, 13] | MIC [5] | MIC [6] | MIC Kp WT [7] | MIC [8] | MIC [9] | MIC [10, 14] | MIC ([4]; ATCC25922, read-out: MIC Ec WT) | MIC ([10]; ATCC19606, read-out: MIC Ab WT) |
| --- | --- | --- | --- | --- | --- | --- | --- | --- | --- | --- | --- | --- | --- | --- | --- | --- |
| CC(C)(C)OC(=O)NC1CCN(c2cc(Nc3ccc4nc(-c5ccc(F)cc5)cc(N)c4c3)nc(N)n2)CC1 [Compound 8i, tert-Butyl (1-(2-Amino-6-((4-amino-2-(4-fluorophenyl)quinolin-6-yl)amino)pyrimidin-4-yl)piperidin-4-yl)carbamate] | 1.3 µM | 0.7 µg/mL | 6.36 | 1 µg/mL (≈ 1.84 µM) | 64 µg/mL (≈ 118 µM) | 6.02 | 6.04 | 64 µg/mL (≈ 118 µM) | 32 µg/mL (≈ 58.8 µM) | 8 µg/mL (≈ 14.7 µM) | 64 µg/mL (≈ 118 µM) | 6.1 µg/mL (≈ 11.2 µM) | 4 µg/mL (≈ 7.34 µM) | 8 µg/mL (≈ 14.7 µM) | – | – |
| Nc1nc(Nc2ccc3nc(-c4ccc(F)cc4)cc(N)c3c2)cc(N2CCN(CCO)CC2)n1 [Compound 8e, 2-(4-(2-Amino-6-((4-amino-2-(4-fluorophenyl)quinolin-6-yl)amino)pyrimidin-4-yl)piperazin-1-yl)ethan-1-ol] | – | – | 5.18 | 128 µg/mL (≈ 270 µM) | 64 µg/mL (≈ 135 µM) | < 4.00 | < 4.00 | – | > 128 µg/mL | 32 µg/mL (≈ 67.4 µM) | 128 µg/mL (≈ 270 µM) | 16 µg/mL (≈ 33.7 µM) | 32 µg/mL (≈ 67.4 µM) | – | > 128 µg/mL | > 128 µg/mL |
| Nc1nc(Nc2ccc3nc(-c4ccc(F)cc4)cc(N)c3c2)cc(=O)[nH]1 [Compound 12, 2-Amino-6-((4-amino-2-(4-fluorophenyl)quinolin-6-yl)amino)pyrimidin-4(3H)-one] | – | – | 5.82 and 5.83 | 32 µg/mL (≈ 88.3 µM) | > 64 µg/mL | < 4.70 | < 4.70 | 32 µg/mL (≈ 88.3 µM) | 32 µg/mL (≈ 88.3 µM) | 16 µg/mL (≈ 44.2 µM) | 32 µg/mL (≈ 88.3 µM) | 9.2 µg/mL (≈ 25.4 µM) | 16 µg/mL (≈ 44.2 µM) | 32 µg/mL (≈ 88.3 µM) | – | – |
| Nc1nc(Nc2ccc3nc(-c4ccc(F)cc4)cc(N)c3c2)cc(OCCO)n1 [Compound 9b, 2-((2-Amino-6-((4-amino-2-(4-fluorophenyl)quinolin-6-yl)amino)pyrimidin-4-yl)oxy)ethan-1-ol] | 8 µM | 3.3 µg/mL | 5.60 and 5.61 | 16 µg/mL (≈ 39.4 µM) | ≥ 64 µg/mL | 4.89 | 4.89 | 32 µg/mL (≈ 78.7 µM) | 32 µg/mL (≈ 78.7 µM) | 8 µg/mL (≈ 19.7 µM) | 32 µg/mL (≈ 78.7 µM) | 9.8 µg/mL (≈ 24.1 µM) | 16 µg/mL (≈ 39.4 µM) | 32 µg/mL (≈ 78.7 µM) | – | – |
| CN1CCN(c2cc(Nc3ccc4nc(-c5ccc(F)cc5)cc(N)c4c3)nc(N)n2)CC1 [Compound 8c, N^6-(2-Amino-6-(4-methylpiperazin-1-yl)pyrimidin-4-yl)-2-(4-fluorophenyl)quinoline-4,6-diamine] | – | – | 5.21 and 5.20 | 128 µg/mL (≈ 288 µM) | 64 µg/mL (≈ 144 µM) | 4.40 | 4.39 | 128 µg/mL (≈ 288 µM) | 16 µg/mL (≈ 36 µM) | 16 µg/mL (≈ 36 µM) | >128 µg/mL | 15.6 µg/mL (≈ 35.1 µM) | 16 µg/mL (≈ 36 µM) | > 128 µg/mL | – | – |
| Nc1cc(-c2ccc(F)cc2)nc2ccc(Nc3cc(Cl)ncn3)cc12 [Compound 14, N^6-(6-Chloropyrimidin-4-yl)-2-(4-fluorophenyl)quinoline-4,6-diamine] | – | – | 5.82 | 64 µg/mL (≈ 175 µM) | > 64 µg/mL | 5.29 | 5.28 | > 64 µg/mL | > 64 µg/mL | > 64 µg/mL | >64 µg/mL | 4.8 µg/mL (≈ 13.1 µM) | 64 µg/mL (≈ 175 µM) | > 64 µg/mL | – | – |
| CN1CCCC(COc2cc(Nc3ccc4nc(-c5ccc(F)cc5)cc(N)c4c3)nc(N)n2)C1 (centres unmarked) [Compound 9c, N^6-(2-Amino-6-((1-methylpiperidin-3-yl)methoxy)pyrimidin-4-yl)-2-(4-fluorophenyl)quinoline-4,6-diamine] | – | – | 5.48 and 5.47 | 64 µg/mL (≈ 135 µM) | > 64 µg/mL | 4.85 | 4.86 | 64 µg/mL (≈ 135 µM) | 16 µg/mL (≈ 33.8 µM) | 16 µg/mL (≈ 33.8 µM) | >64 µg/mL | 37.5 µg/mL (≈ 79.2 µM) | 32 µg/mL (≈ 67.6 µM) | > 64 µg/mL | – | – |
| Nc1cc(-c2ccc(F)cc2)nc2ccc(Nc3cc(N4CCNCC4)ncn3)cc12 [Compound 15, 2-(4-Fluorophenyl)-N^6-(6-(piperazin-1-yl)pyrimidin-4-yl)quinoline-4,6-diamine] | 1.7 µM | 0.7 µg/mL | 5.22 | > 64 µg/mL | 32 µg/mL (≈ 77 µM) | 4.64 | 4.68 | > 64 µg/mL | 8 µg/mL (≈ 19.3 µM) | 16 µg/mL (≈ 38.5 µM) | >64 µg/mL | > 42 µg/mL | 16 µg/mL (≈ 38.5 µM) | > 64 µg/mL | – | – |
| CN(CCO)c1cc(Nc2ccc3nc(-c4ccc(F)cc4)cc(N)c3c2)nc(N)n1 [Compound 8l, 2-((2-Amino-6-((4-amino-2-(4-fluorophenyl)quinolin-6-yl)amino)pyrimidin-4-yl)(methyl)amino)ethan-1-ol] | 7.8 µM | 3.3 µg/mL | 4.96 and 4.94 | 32 µg/mL (≈ 76.3 µM) | > 64 µg/mL | 4.80 | 4.79 | 16 µg/mL (≈ 38.1 µM) | > 64 µg/mL | 8 µg/mL (≈ 19.1 µM) | >64 µg/mL | 9.8 µg/mL (≈ 23.4 µM) | 8 µg/mL (≈ 19.1 µM) | > 64 µg/mL | – | – |
| Nc1nc(Nc2ccc3nc(-c4ccc(F)cc4)cc(N)c3c2)cc(N2CCC(CO)CC2)n1 [Compound 8n, (1-(2-Amino-6-((4-amino-2-(4-fluorophenyl)quinolin-6-yl)amino)pyrimidin-4-yl)piperidin-4-yl)methanol] | 3.7 µM | 1.7 µg/mL | 5.39 and 5.38 | 32 µg/mL (≈ 69.6 µM) | > 64 µg/mL | – | – | 64 µg/mL (≈ 139 µM) | 64 µg/mL (≈ 139 µM) | 16 µg/mL (≈ 34.8 µM) | >64 µg/mL | 17.7 µg/mL (≈ 38.5 µM) | 32 µg/mL (≈ 69.6 µM) | 64 µg/mL (≈ 139 µM) | – | – |
| CC(C)N1CCN(c2cc(Nc3ccc4nc(-c5ccc(F)cc5)cc(N)c4c3)nc(N)n2)CC1 [Compound 8d, N^6-(2-Amino-6-(4-isopropylpiperazin-1-yl)pyrimidin-4-yl)-2-(4-fluorophenyl)quinoline-4,6-diamine] | – | – | 5.44 | 128 µg/mL (≈ 271 µM) | 64 µg/mL (≈ 135 µM) | 4.72 | 4.73 | 64 µg/mL (≈ 135 µM) | 32 µg/mL (≈ 67.7 µM) | 32 µg/mL (≈ 67.7 µM) | 128 µg/mL (≈ 271 µM) | 7.6 µg/mL (≈ 16.1 µM) | 32 µg/mL (≈ 67.7 µM) | > 128 µg/mL | – | – |
